This series relates to chronic mild stress (CMS) model of depression. Kind of series: Chronic mild stress (CMS) model of depression, sucrose consumption (Example 2). It is filed as in vivo, rat. An excerpt:
This study evaluated the antidepressant effect of cariprazine hydrochloride in the chronic mild stress (CMS) model of depression. A comparison to the efficacy of the tricyciclic antidepressant compound imipramine was also made.
Male Wistar rats were adapted to laboratory and housing conditions for 3 weeks, followed by adoption to consumption of 1% sucrose solution for an additional 5 weeks before being separated into control and to-be-stressed groups.
Chronic stress was applied to the allocated group for seven weeks. The following stressors were used: food and/or water deprivation, cage tilting (45 degrees backwards), intermittent illumination, paired housing, soiled cage (250 mL of tap water in sawdust bedding), stroboscopic illumination (150 flashed per minute), no stress. All stressors were 10-14 hours in duration and were applied individually and continuously, once or twice weekly, during the day and at night.
Consumption of sucrose solution was measured in 1-hour tests conducted on all animals (i.e., controls and stressed) once weekly throughout the entire experiment. The tests were preceded by 14 hours of food and water deprivation. On the basis of their sucrose intakes following the initial 2 weeks of stress, both stressed and control animals received once-daily chronic (5 weeks) IP injections of vehicle (1% methyl cellulose, 1 mL/kg), cariprazine hydrochloride (0.0625, 0.25 or 1.0 mg/kg), or imipramine (10 mg/kg) as reference treatment. […] These animals were considered weak responders/non-responders and were eliminated from the analysis.

[1] abbreviates: cariprazine hydrochloride 1 mg/kg IP once daily.
The mark [2] stands for this setting: cariprazine hydrochloride 0.065 and 0.25 mg/kg IP once daily, 5 weeks.

The values that follow come from patent publication US20110015208A1, “PHARMACEUTICAL COMPOSITIONS CONTAINING DOPAMINE RECEPTOR LIGANDS AND METHODS OF TREATMENT USING DOPAMINE RECEPTOR LIGANDS” (priority 2007, published 2011).

SMILES strings stand for the structures. Counter-ions that a name gives are not always drawn.

Regarding `CN(C)C(=O)N[C@H]1CC[C@H](CCN2CCN(c3cccc(Cl)c3Cl)CC2)CC1` [Cariprazine hydrochloride, trans-4-{2-[4-(2,3-dichlorophenyl)-piperazin-1-yl]-ethyl}-N,N-dimethylcarbamoyl-cyclohexylamine hydrochloride], under “cariprazine hydrochloride 0.065 mg/kg IP once daily, stressed animals”, the “onset of action: increases in sucrose drinking evident at” value came to 1 Week. In addition, the sedation entry (cariprazine hydrochloride 1 mg/kg IP) is listed as “strongly sedative dose”. Under setting [1], the “sucrose consumption in control animals” value is “significantly decreased” and the “sucrose intake in stressed animals” value is “did not change”. Further, for the setting “cariprazine hydrochloride 1 mg/kg IP once daily (highest dose)”, the “activity in the CMS model” value is “inactive”. Moreover, under setting [2], the “sucrose drinking in controls (non-stressed)” value is listed as “without any significant effect” and the “sucrose drinking in stressed animals” value was “dose-dependently increased sucrose drinking”. Further, for the setting “most active dose 0.065 mg/kg IP vs imipramine 10 mg/kg IP”, the “magnitude of effect on sucrose drinking relative to imipramine” value is on record as “greater than that of imipramine”.
